Test results: the supplement of paper PMC13207355

How the values were obtained:
Details in all cases: exposure time: 72 h
E21 [1] = patient-derived glioblastoma stem cells of mesenchymal subtype; test: phenotypic distance (Euclidean, principal components) from DMSO controls (arbitrary units); higher = stronger morphological change
E28 [2] = patient-derived glioblastoma stem cells of classical subtype; test: as above
FT3469 [3] = normal neural stem cell line; test: as above
E31 [4] = patient-derived glioblastoma stem cells of proneural subtype; test: as above
E57 [5] = patient-derived glioblastoma stem cells of mesenchymal subtype; test: as above
E13 [6] = patient-derived glioblastoma stem cells of classical subtype; test: as above
E34 [7] = patient-derived glioblastoma stem cells of proneural subtype; test: as above
E21 [8] = test: surviving fraction (nuclei count normalised to DMSO); higher = more cells surviving (less toxic)
E28 [9] = test: as above
FT3469 [10] = test: as above
E31 [11] = test: as above
E57 [12] = test: as above
E13 [13] = test: as above
E34 [14] = test: as above
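Throughout, for phenotypic distance (Euclidean, principal components) from DMSO controls: cell Painting imaging in 384-well plates, CellProfiler features reduced to at least 20 principal components, Euclidean distance versus same-plate DMSO vehicle wells (0.1% v/v), median over six images per well.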
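Throughout, for surviving fraction (nuclei count normalised to DMSO): nuclei counted by high-content imaging of Hoechst-stained cells in laminin-coated 384-well plates, relative to 0.1% DMSO vehicle wells, with staurosporine as cell-death control.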

`Cn1ncnc1[C@H]1c2n[nH]c(=O)c3cc(F)cc(c23)N[C@@H]1c1ccc(F)cc1` [Talazoparib] gave a phenotypic distance (E21 [1]; 4.1 nM) of 4.97, a phenotypic distance (E21 [1]; 12.3 nM) of 1.69 and a phenotypic distance (E21 [1]; 37 nM) of 2.19. It also gave a phenotypic distance (E21 [1]; 111.1 nM) of 2.75, a phenotypic distance (E21 [1]; 333.3 nM) of 3.08 and a phenotypic distance (E21 [1]; 1000 nM) of 4.5. For the same compound, the phenotypic distance (E21 [1]; 3000 nM) was 5.21, the phenotypic distance (E28 [2]; 4.1 nM) was 3.02 and the phenotypic distance (E28 [2]; 12.3 nM) was 2.65. It also gave a phenotypic distance (E28 [2]; 37 nM) of 3.31, a phenotypic distance (E28 [2]; 111.1 nM) of 3.57 and a phenotypic distance (E28 [2]; 333.3 nM) of 3.51. It also gave a phenotypic distance (E28 [2]; 1000 nM) of 3.37, a phenotypic distance (E28 [2]; 3000 nM) of 4.36 and a phenotypic distance (FT3469 [3]; 4.1 nM) of 2.18. For the same compound, the phenotypic distance (FT3469 [3]; 12.3 nM) was 1.53, the phenotypic distance (FT3469 [3]; 37 nM) was 1.5 and the phenotypic distance (FT3469 [3]; 111.1 nM) was 1.69. The phenotypic distance (FT3469 [3]; 333.3 nM) was 1.74, the phenotypic distance (FT3469 [3]; 1000 nM) was 1.99 and the phenotypic distance (FT3469 [3]; 3000 nM) was 2.44. The phenotypic distance (E31 [4]; 4.1 nM) was 1.5, the phenotypic distance (E31 [4]; 12.3 nM) was 1.58 and the phenotypic distance (E31 [4]; 37 nM) was 1.6. For the same compound, the phenotypic distance (E31 [4]; 111.1 nM) was 2.21, the phenotypic distance (E31 [4]; 333.3 nM) was 2.86 and the phenotypic distance (E31 [4]; 1000 nM) was 2.1. The phenotypic distance (E31 [4]; 3000 nM) was 2.79, the phenotypic distance (E57 [5]; 4.1 nM) was 1.57 and the phenotypic distance (E57 [5]; 12.3 nM) was 1.96. For the same compound, the phenotypic distance (E57 [5]; 37 nM) was 1.65, the phenotypic distance (E57 [5]; 111.1 nM) was 2.9 and the phenotypic distance (E57 [5]; 333.3 nM) was 3.02. For the same compound, the phenotypic distance (E57 [5]; 1000 nM) was 6.02, the phenotypic distance (E57 [5]; 3000 nM) was 6.4 and the phenotypic distance (E13 [6]; 4.1 nM) was 1.44. The phenotypic distance (E13 [6]; 12.3 nM) was 1.97, the phenotypic distance (E13 [6]; 37 nM) was 2.08 and the phenotypic distance (E13 [6]; 111.1 nM) was 2.45. The phenotypic distance (E13 [6]; 333.3 nM) was 3.55, the phenotypic distance (E13 [6]; 1000 nM) was 4.7 and the phenotypic distance (E13 [6]; 3000 nM) was 4.3. For the same compound, the phenotypic distance (E34 [7]; 4.1 nM) was 3.39, the phenotypic distance (E34 [7]; 12.3 nM) was 3.64 and the phenotypic distance (E34 [7]; 37 nM) was 3.15. It also gave a phenotypic distance (E34 [7]; 111.1 nM) of 3.62, a phenotypic distance (E34 [7]; 333.3 nM) of 3.3 and a phenotypic distance (E34 [7]; 1000 nM) of 2.98. For the same compound, the phenotypic distance (E34 [7]; 3000 nM) was 3.55, the surviving fraction (E21 [8]; 4.1 nM) was 0.755 and the surviving fraction (E21 [8]; 12.3 nM) was 0.777. It also gave a surviving fraction (E21 [8]; 37 nM) of 0.709, a surviving fraction (E21 [8]; 111.1 nM) of 0.629 and a surviving fraction (E21 [8]; 333.3 nM) of 0.565. The surviving fraction (E21 [8]; 1000 nM) was 0.403, the surviving fraction (E21 [8]; 3000 nM) was 0.292 and the surviving fraction (E28 [9]; 4.1 nM) was 0.503. The surviving fraction (E28 [9]; 12.3 nM) was 0.47, the surviving fraction (E28 [9]; 37 nM) was 0.44 and the surviving fraction (E28 [9]; 111.1 nM) was 0.418. For the same compound, the surviving fraction (E28 [9]; 333.3 nM) was 0.388, the surviving fraction (E28 [9]; 1000 nM) was 0.395 and the surviving fraction (E28 [9]; 3000 nM) was 0.3. The surviving fraction (FT3469 [10]; 4.1 nM) was 0.637, the surviving fraction (FT3469 [10]; 12.3 nM) was 0.778 and the surviving fraction (FT3469 [10]; 37 nM) was 0.657. The surviving fraction (FT3469 [10]; 111.1 nM) was 0.727, the surviving fraction (FT3469 [10]; 333.3 nM) was 0.648 and the surviving fraction (FT3469 [10]; 1000 nM) was 0.636. It also gave a surviving fraction (FT3469 [10]; 3000 nM) of 0.569, a surviving fraction (E31 [11]; 4.1 nM) of 0.59 and a surviving fraction (E31 [11]; 12.3 nM) of 0.663. The surviving fraction (E31 [11]; 37 nM) was 0.623, the surviving fraction (E31 [11]; 111.1 nM) was 0.534 and the surviving fraction (E31 [11]; 333.3 nM) was 0.342. It also gave a surviving fraction (E31 [11]; 1000 nM) of 0.265, a surviving fraction (E31 [11]; 3000 nM) of 0.207 and a surviving fraction (E57 [12]; 4.1 nM) of 0.807. It also gave a surviving fraction (E57 [12]; 12.3 nM) of 0.735, a surviving fraction (E57 [12]; 37 nM) of 0.797 and a surviving fraction (E57 [12]; 111.1 nM) of 0.676. The surviving fraction (E57 [12]; 333.3 nM) was 0.605, the surviving fraction (E57 [12]; 1000 nM) was 0.313 and the surviving fraction (E57 [12]; 3000 nM) was 0.25. The surviving fraction (E13 [13]; 4.1 nM) was 0.705, the surviving fraction (E13 [13]; 12.3 nM) was 0.673 and the surviving fraction (E13 [13]; 37 nM) was 0.629. For the same compound, the surviving fraction (E13 [13]; 111.1 nM) was 0.593, the surviving fraction (E13 [13]; 333.3 nM) was 0.548 and the surviving fraction (E13 [13]; 1000 nM) was 0.461. It also gave a surviving fraction (E13 [13]; 3000 nM) of 0.51, a surviving fraction (E34 [14]; 4.1 nM) of 0.623 and a surviving fraction (E34 [14]; 12.3 nM) of 0.671. It also gave a surviving fraction (E34 [14]; 37 nM) of 0.556, a surviving fraction (E34 [14]; 111.1 nM) of 0.594 and a surviving fraction (E34 [14]; 333.3 nM) of 0.561. For the same compound, the surviving fraction (E34 [14]; 1000 nM) was 0.503 and the surviving fraction (E34 [14]; 3000 nM) was 0.48.
